Assay [1] has as its system NDM-1-expressing E. coli. The assay can be described thus: NRTP luciferase live cell reporter assay, NDM-1 detection (Example 1). In kind it is cell-based. The conditions noted are these: 2 hours at 37° C.; for luminescence signal (% RLU normalized to No Antibiotic): FIG. 2. The procedure: An NDM-1 detection assay is produced using a luciferase-expressing non-replicative transduction particle specific to Enterobacteriaceae (as described in PCT/US2014/026536, Example 1), ertapenem, and the chelator Ethylenediaminetetraacetic acid (EDTA).
A culture of a clinical isolate of an NDM-1-expressing E. coli was prepared in LB media and used to determine the response of the NRTP reporter in the presence of ertapenem, EDTA, and Zinc. The assay was prepared by mixing 50 μL of the cell culture at an OD600 of 0.02 to 50 μL of LB media and 100 μL of NRTP reagent prepared in a microwell plate. The assay was incubated for 2 hours at 37° C. under the following conditions: (1) No additives, (2) with the addition of ertapenem at 0.25 μg/mL, (3) with the addition of ertapenem and EDTA at 750 μg/mL, and (4) with the addition of ertapenem and Zinc sulfate at 70 μg/mL. After the incubation, the samples were assayed for luminescence after the injection of a nonanal reagent as a substrate for the live cell reporter using a Molecular Devices SpectraMax L luminometer.
The luminescence readings were then normalized to those produced by sample (1) and plotted as a percentage relative to sample (1) as shown in FIG. 2.
Background: A reporter such as luciferase makes a cellular process visible.

The subject of assay [2] is KPC-expressing E. coli. Description: NRTP luciferase live cell reporter assay, KPC detection (Example 2). It is filed as cell-based. The settings on record: 2 hours at 37° C. The procedure:
In another embodiment of the invention, a KPC detection assay is produced using a luciferase-expressing non-replicative transduction particle specific to Enterobacteriaceae as described in PCT/US2014/026536, Example 1, ertapenem and the β-lactamase inhibitor boronic acid.
A culture of a clinical isolate of a KPC-expressing E. coli was prepared in LB media and used to determine the response of the NRTP reporter in the presence of ertapenem, and boronic acid. The replicates of the assay were prepared mixing 50 μL of the cell culture at an OD600 of 0.02 to 50 μL of LB media and 100 μL of NRTP reagent prepared in a microwell plate. The assay was incubated for 2 hours at 37° C. under the following conditions: (1) No additives, (2) with the addition of ertapenem at 1 μg/mL, and (3) with the addition of ertapenem and phenyl boronic acid 400 μg/mL. After the incubation, the samples were assayed for luminescence after the injection of a nonanal reagent as a substrate for the live cell reporter using a Molecular Devices SpectraMax L luminometer.
The luminescence readings were then normalized to those produced by sample (1) and plotted as the average percentage relative to sample (1) as shown in FIG. 1.

Assay [3] concerns NDM-1-expressing E. coli. In kind it is cell-based. The conditions noted are these: Smarticles assay, clinical isolates. The procedure:
(§1) Thus, the ability to quickly detect viable Gram-negative bacteria, determine their susceptibility to carbapenems, and distinguish between carbapenem resistance mechanisms could aid physicians in considering such therapeutic options in the future. […] In this study, a Smarticles™ assay was evaluated for its ability to detect carbapenem resistant E. coli and distinguish between NDM-1 and KPC-expressing organisms.
(§2) Methods: 26 clinical isolates of E. coli, Klebsiella spp., Enterobacter spp., Citrobacter spp., Proteus spp., and S. marcescens were evaluated using the Smarticles™ assay and ertapenem disk diffusion. CRE isolates included organisms expressing blaKPC and blaNDM-1. The Smarticles™ assay was used with the addition of the chelating agent edetic acid (EDTA) and β-lactamase inhibitor boronic acid to scrutinize clinical isolates of E. coli expressing NDM-1 and KPC.

In assay [4] the test system is KPC-expressing E. coli. The assay can be described thus: Smarticles live cell luminescence assay with inhibitors (Example 4). It is filed as cell-based. The settings on record: clinical isolates. The procedure: as §1, §2
For assay [5], the system named is Class A carbapenemases (e.g. KPC). The conditions noted are these: background statement; cited from earlier work.
In assay [6] the test system is Class B carbapenemases (e.g. NDM-1). The settings on record: background statement; cited from earlier work.

Regarding `C[C@@H](O)[C@H]1C(=O)N2C(C(=O)O)=C(S[C@@H]3CN[C@H](C(=O)Nc4cccc(C(=O)O)c4)C3)[C@H](C)[C@H]12` [ertapenem], the “luminescence signal (% RLU normalized to No Antibiotic)” value with NDM-1-expressing E. coli [1] (ertapenem 0.25 μg/mL alone) and with KPC-expressing E. coli [2] (ertapenem 1 μg/mL alone) was “not significantly decreased” throughout. The susceptibility phenotype result in the assay on NDM-1-expressing E. coli [1] (ertapenem 0.25 μg/mL) and in the assay with KPC-expressing E. coli [2] (ertapenem 1 μg/mL) was “non-susceptible” in each case.
For the compound `OB(O)c1ccccc1` [boronic acid, phenyl boronic acid], the “luminescence signal (% RLU normalized to No Antibiotic)” value in the assay with KPC-expressing E. coli [2] (ertapenem 1 μg/mL and phenyl boronic acid 400 μg/mL) is “significantly decreased”. For the same compound, the “assay signal in the presence of the inhibitor” value in the assay on NDM-1-expressing E. coli [3] is given as “not inhibited”; in the assay with KPC-expressing E. coli [4], “inhibited”.
Turning to `O=C(O)CN(CCN(CC(=O)O)CC(=O)O)CC(=O)O` [EDTA, Ethylenediaminetetraacetic acid], in the assay with NDM-1-expressing E. coli [1] (ertapenem 0.25 μg/mL and EDTA 750 μg/mL), the “luminescence signal (% RLU normalized to No Antibiotic)” value was “significantly decreased”. Besides, the “assay signal in the presence of the inhibitor” value is on record as “inhibited” in the assay with NDM-1-expressing E. coli [3] and “not inhibited” in the assay with KPC-expressing E. coli [4].
Regarding `O=S(=O)([O-])[O-].[Zn+2]` [Zinc, Zinc sulfate], the “luminescence signal (% RLU normalized to No Antibiotic)” value in the assay on NDM-1-expressing E. coli [1] (ertapenem 0.25 μg/mL and Zinc sulfate 70 μg/mL) is recorded as “significantly increased”.
Take `O=C(NC1CCNCC1)[C@@H]1CC[C@@H]2CN1C(=O)N2OS(=O)(=O)O` [Relebactam]: the “activity against Class A carbapenemases” value in assay [5] is given as “shown activity”. Further, in assay [6], the “activity against Class B carbapenemases” value is recorded as “not against”.

Source of the values: patent US10472686B2, “Mechanisms of antimicrobial susceptibility” (Roche Molecular Systems, Inc., priority 2015, dated 2019).
